# Patent publication US20130108645A1, “METHODS FOR ENHANCING AXONAL REGENERATION” (THE JOHNS HOPKINS UNIVERSITY, priority 2010, published 2013)
# Assays:
# [1] = test system: WT mice; experiment: Sciatic nerve crush in WT mice with systemic BACE1 inhibitor infusion via Alzet pumps; assay type: in vivo, mouse
# Description: The inhibitors were systemically administered via subcutaneous catheters from Alzet pumps implanted in the interscapular space for 7 or 15 days.
# Mice were deeply anesthetized with isoflurane and left sciatic nerves in the mid thigh or at the sciatic notch level were exposed and crushed by pulling tight a loop of 8-0 nylon black sutures for 30-40 seconds. The crush sites were marked with a 10-0 nylon black suture going through the epineurium only. For sciatic nerve transection, a small ˜2 mm piece of nerve was dissected out and the two nerve stumps were turned away from each other to prevent axonal regeneration to distal stumps. The distal stumps and contralateral nerves were collected 1-15 days post-transection.
# Alzet pumps were filled, primed, and implanted as previously described in Farah, J. Neurosci. […] Neurol. […] The latter compound was synthesized by the NeuroTranslational team at the Brain Science Institute at Johns Hopkins University. Both inhibitors were dissolved in DMSO. According to the manufacturer's data, the pump continuously supplied 1-30 μg/hour of inhibitor for 7 days. To minimize the delay between implantation and the onset of release, the filled pumps were incubated in 1×PBS at 37° C. for 4 hours immediately before implantation. The mice were anesthetized by inhalation of isoflurane, and an incision, about 1.5 cm long, was made in the skin on top of the interscapular space. A filled Alzet pump was implanted subcutaneously into each mouse and incisions were closed with 9 mm stainless steel wound clips.
# For fluorescent microscopy and immunostaining, mice were deeply anesthetized with 10% chloral hydrate and killed by transcardial perfusion with 1×PBS followed by 2% paraformaldehyde in […] phosphate buffer, pH 7.4, for 10-15 minutes. Tissues were then postfixed in the same fixative for 4-16 hr at 4° C. Sciatic nerves and gastrocnemius muscles were cryoprotected in 30% sucrose in 1×PBS overnight and quickly frozen in cold 2-methylbutane. Tissues were frozen sectioned on a cryostat at thickness of 10 or 20 μm for sciatic nerves and 50 μm for gastrocnemius muscles. In addition, the hind feet were decalcified, cryoprotected in 30% sucrose in 1×PBS, and sectioned at 50 μm thickness. Sciatic nerves were sectioned longitudinally using a Leica cryostat (model CM3050S, Leica Microsystems, Buffalo Grove, Ill.). Gastrocnemius muscles and foot were cross-sectioned by a freezing sliding microtome (Microm HM 450, Thermo Scientific, Waltham, Mass.).
# To visualize YFP-positive degenerating and regenerating axons, animals were perfused as described above and sciatic nerves were collected. Whole-mounted sciatic nerves were imaged under a confocal microscope and Z-stack images were collected through the depth of the nerves.
# For ultrastructural analyses, nerves were postfixed in OsO4 and embedded in Epon. Cross sections, at 1 μm thickness, were stained for toluidine blue and examined under light microscopy with 100× oil-immersion objective. 70 nm thin sections were obtained and stained for citrate/uranyl acetate. Electron micrographs were acquired using a Hitachi 7600 or Zeiss Libra transmission electron microscope.
# [2] = test system: WT DRG explants; experiment: Axonal outgrowth of dorsal root ganglia (DRG) explants; details: 50 nM, 4 days post culture
# Experimental: Postnatal (P4-5) primary mouse DRG from WT littermate and BACE1 KO pups were established. Axonal outgrowth at 2 and 4 days post culture were measured.
# Postnatal day 4-5 dorsal root ganglia (DRG) were dissected out of WT and BACE1 KO mice, and were maintained in neurobasal medium containing 2% B27 supplement and 50 ng/ml NGF (all reagents from Invitrogen, Carlsbad, Calif.). In some of the WT DRG explants, 50 nM-1 μM BACE1 inhibitor IV was added daily to the media. At least 8 explants were used for each condition. Axonal outgrowth of the DRG was monitored daily under phase-contrast microscopy, and images were acquired with Openlab software at 2 and 4 days post culture. The axon lengths were measured from the borders of the explants borders to the tips of axons using ImageJ (http://rsb.info.nih.gov/ij/).
# [3] = Paclitaxel administration, body weight; assay type: in vivo, mouse; details: 30 mg/kg intravenously via tail vein, 3 times a week for 2 weeks; WT and BACE1 KO mice
# Experimental: Paclitaxel (LC laboratories) was dissolved in 100% ethonal. Equal volumes of paclitaxel solution and cremophor (Sigma-Aldrich, St. Louis, Mo.) were vigorously vortexed for 10 minutes. Ice cold saline (80% of the final volume) was added to freshly made paclitaxel/cremophor solution immediately before injection. 30 mg/kg body weight of paclitaxel in this solution was injected intravenously via tail vein at 3 times a week for 2 weeks.
smiles,measurement,setting,value
C[C@@H](NC(=O)c1cc(C(=O)N[C@@H](Cc2ccccc2)[C@H](O)CNC2CC2)cc(N(C)S(C)(=O)=O)c1)c1ccccc1 [BACE1 inhibitor IV],YFP-positive axonal debris in whole-mounted YFP-WT nerve,"[1]; mouse, in vivo",more fragmented
same,post-phagocytic macrophages in electron micrograph of WT nerve,"[1]; mouse, in vivo",More post-phagocytic macrophages
same,regenerated YFP-positive axons in whole-mounted YFP-WT nerve,"[1]; mouse, in vivo",numerous regenerated YFP-positive axons
same,regenerated axons in electron micrograph of WT nerve,"[1]; mouse, in vivo",more regenerated axons
same,increase of axonal outgrowth of WT DRG explants,[2],98.0%
"CC(=O)O[C@H]1C(=O)[C@@]2(C)[C@H]([C@H](OC(=O)c3ccccc3)[C@]3(O)C[C@H](OC(=O)[C@H](O)[C@@H](NC(=O)c4ccccc4)c4ccccc4)C(C)=C1C3(C)C)[C@]1(OC(C)=O)CO[C@@H]1C[C@@H]2O [Paclitaxel, paclitaxel]",weight loss,[3],no significant weight loss
COc1ccc([C@]2(c3ccc(F)c(-c4cccnc4F)c3)N=C(N)N(C)C2=O)cc1C [WAY 258131],β tubulin III staining of intra-plantar nerves of WT foot,[1]; 2 weeks after sciatic nerve crush and treatment,β tubulin III positive fibers are regenerated axons
